Data as given in US20040001818A1, “Methods of inhibiting angiogenesis using NADPH oxidase inhibitors” (priority 2000, published 2004).
Read-outs that look alike come from different tables or passages of the source.

How the values were obtained:
MnSOD mRNA [1] = experiment: Northern blot of MnSOD mRNA in HCAECs; assay type: cell-based, human
Method: Cell culture. Human coronary artery endothelial cells (HCAECs) (Clonetics Corporation, San Diego, Calif., USA) and human pulmonary artery endothelial cells (HPAECs) were grown in Endothelial Growth Medium-2-MV (EGM-2-MV) BulletKit (Clonetics Corporation, San Diego, Calif., USA). At 80-90% confluence, the cells were serum-starved in DMEM containing 0.5% FBS for 24 hours and subsequently treated with VEGF-supplemented medium for the times indicated. Human recombinant VEGF was purchased from PeproTech, Inc. (Rocky Hill, N.J., USA). […] In other studies, the serum-starved cells were pretreated with the MEK inhibitor PD98059 at a final concentration of 50 μM or a specific PKC inhibitor bisindolylmaleimide I (BIM; CalBiochem, San Diego, Calif., USA) at a final concentration of 5 μM for 30 minutes prior to addition of growth factors. An equal amount of DMSO was added to the control plates. Northern blot analyses. Ten micrograms total RNA was loaded on a 0.7% formaldehyde-containing agarose gel. The RNA was transferred to nylon membrane, covalently cross-linked with UV radiation, prehybridized for 6 hours, and hybridized for 18 hours at 42° C. with a [^32P]dCTP-labeled cDNA probe containing MnSOD or eNOS cDNA sequence. The membranes were subsequently stripped and probed with a radiolabeled 18S-ribosome probe. For actinomycin D experiments, HCAEC cells were pretreated with 10 μg/ml actinomycin D (Sigma Chemical Company, St. Louis, Mo., USA) for 30 minutes before addition of VEGF and were harvested for total RNA one hour later.
To determine whether VEGF induced expression of MnSOD in primary endothelial cell cultures, HCAECs and HPAECs were serum starved for 24 hours, treated with 40 ng/ml VEGF for 0, 0.5, 1, 2, 4, 12 and 24 hours, and then harvested for total RNA. Northern blots were performed and probed for human MnSOD. […] The membranes were then stripped and reprobed for eNOS.
To determine whether the response of MnSOD to VEGF was mediated by ROS, HCAECs were serum starved and then treated with VEGF in the absence or presence of inhibitors of NADPH oxidase (DPI, apocynin), xanthine oxidase (allopurinol) and nitric oxide synthase (L-NAME).

ROS = ROS generation: DCF oxidation by flow cytometry in DCFDA-labeled HCAECs; assay type: cell-based, human; settings: relative to basal rate of control cells
Method: (§1) Western blot analyses. Whole cell protein extracts were prepared from serum-starved HCAECs and HPAECs one hour following addition of growth factor-supplemented or mock-treated media. Cells were washed twice with cold phosphate-buffered saline, harvested with a cell scraper, and lysed in ice-cold lysis buffer containing 20 mM HEPES, pH 7.5, 150 mM NaCl, 1% NP-40, 0.1% SDS, 1 mM EDTA, 1 mM DTT, 0.5 mM phenylmethylsulfonyl fluoride (PMSF), and the protease inhibitor cocktail (Boehringer Mannheim, Mannheim, Germany) for one hour. The resulting lysates were centrifuged at 10,000× g for 20 minutes and the supernatants were saved as whole cell protein extracts. Forty micrograms of protein were separated by 10% SDS-PAGE and electrotransferred to nitrocellulose membranes. Membranes were blocked with 5% nonfat dry milk in Tris-buffered saline with 0.1% Tween 20 for one hour at room temperature. The blot was incubated with primary rabbit polyclonal anti-MnSOD IgG (1:1000 dilution) (Santa Cruz Biotechnology Inc., Santa Cruz, Calif., USA) overnight at 4° C., followed by secondary antibody goat-anti-rabbit horseradish peroxidase conjugate (1:1000 dilution) (Pierce, Rockford, Ill., USA). The blot was washed extensively between each incubation step. Peroxidase activity was visualized with an enhanced chemiluminescense substrate system (Amersham, Arlington Heights, Ill., USA). Membranes were stripped and probed for eNOS and β-actin. Flow cytometry. Endothelial cells were labeled with DCFDA and oxidation of DCF was measured by flow cytometry.
To test whether VEGF increases ROS production in endothelial cells, HCAECs were labeled with […] DCFDA and oxidation of DCF was measured by flow cytometry. […] PMS is known to induce free oxygen radicals.

MnSOD mRNA [2] = experiment: Northern blot of MnSOD mRNA in organs of mice after intraperitoneal VEGF; assay type: in vivo, mouse; settings: four hours after intraperitoneal injection of 20 μg VEGF
Method: Mice and injection of growth factors. Female FVB mice (4 to 8 weeks old; 18 to 22 grams) were obtained from Taconic (Germantown, N.Y., USA). All protocols were approved by the Institutional Animal Care and Use Committee of the Beth Israel Deaconess Medical Center. Mice were injected intraperitoneally with VEGF (1.0 μg/g body weight).
Injection of VEGF into the intraperitoneal cavity of mice results in widespread distribution of the growth factor and phosphorylation of the VEGF receptor, Flk-1. In this study, therefore, organs were removed from mice four hours following intraperitoneal injection of either normal saline or 20 μg VEGF and harvested for total RNA. Northern blot analyses were then carried out to determine whether VEGF induced the expression of a panel of genes, including MnSOD.

MnSOD mRNA [3] = settings: HPAEC, 40 ng/ml VEGF
Method: (§2) Cell culture. Human coronary artery endothelial cells (HCAECs) (Clonetics Corporation, San Diego, Calif., USA) and human pulmonary artery endothelial cells (HPAECs) were grown in Endothelial Growth Medium-2-MV (EGM-2-MV) BulletKit (Clonetics Corporation, San Diego, Calif., USA). At 80-90% confluence, the cells were serum-starved in DMEM containing 0.5% FBS for 24 hours and subsequently treated with VEGF-supplemented medium for the times indicated. Human recombinant VEGF was purchased from PeproTech, Inc. (Rocky Hill, N.J., USA). In inhibition studies, the serum-starved HCAEC cells were preincubated with diphenyleneiodonium (DPI), apocynin, allopurinol, L-NAME, or anthrone for one hour and then incubated in the absence or presence of 40 ng/ml VEGF for another hour. In other studies, the serum-starved cells were pretreated with the MEK inhibitor PD98059 at a final concentration of 50 μM or a specific PKC inhibitor bisindolylmaleimide I (BIM; CalBiochem, San Diego, Calif., USA) at a final concentration of 5 μM for 30 minutes prior to addition of growth factors. An equal amount of DMSO was added to the control plates. Northern blot analyses. Ten micrograms total RNA was loaded on a 0.7% formaldehyde-containing agarose gel. The RNA was transferred to nylon membrane, covalently cross-linked with UV radiation, prehybridized for 6 hours, and hybridized for 18 hours at 42° C. with a [^32P]dCTP-labeled cDNA probe containing MnSOD or eNOS cDNA sequence. The membranes were subsequently stripped and probed with a radiolabeled 18S-ribosome probe. For actinomycin D experiments, HCAEC cells were pretreated with 10 μg/ml actinomycin D (Sigma Chemical Company, St. Louis, Mo., USA) for 30 minutes before addition of VEGF and were harvested for total RNA one hour later.
(§3) To determine whether VEGF induced expression of MnSOD in primary endothelial cell cultures, HCAECs and HPAECs were serum starved for 24 hours, treated with 40 ng/ml VEGF for 0, 0.5, 1, 2, 4, 12 and 24 hours, and then harvested for total RNA. Northern blots were performed and probed for human MnSOD. […]

eNOS mRNA = settings: either cell type (HCAEC, HPAEC), 40 ng/ml VEGF
Method: as §2, §3

MnSOD protein = settings: 40 ng/ml VEGF; for MnSOD protein: 0.5-24 hours
Method: as §1
Serum-starved HCAECs and HPAECs were treated with 40 ng/ml VEGF for 0.5-24 hours and then harvested for total protein.

eNOS protein = settings: 40 ng/ml VEGF, any time point 0.5-24 hours
Method: as §1, with “Peroxidase activity was visualized with an enhanced chemiluminescense substrate system (Amersham, Arlington Heights, Ill., USA). Membranes were stripped and probed for eNOS and β-actin. Flow cytometry.” left out

## VEGF
MnSOD mRNA [1]; HCAEC, 40 ng/ml VEGF
  time of peak MnSOD mRNA levels: 4 h
MnSOD mRNA [1]; HCAEC, 40 ng/ml VEGF, between one hour and 24 hours
  MnSOD mRNA levels: increased
MnSOD mRNA [1]; dose-response 0, 1, 5, 10, 100 ng/ml VEGF
  VEGF concentration of maximal MnSOD induction: 100 ng/mL
ROS
  DCF oxidation (ROS production): no change
MnSOD mRNA [2]
  MnSOD mRNA levels in other tissues (lung, brain, liver, spleen, skeletal muscle): not
  MnSOD mRNA levels in the heart and the kidney: increased
MnSOD mRNA [3]
  time of peak MnSOD mRNA levels: 4 h
MnSOD mRNA [3]; between 2 and 24 hours
  MnSOD mRNA levels: increased
eNOS mRNA
  eNOS mRNA induction: not induced
MnSOD protein; HCAECs
  time of maximal MnSOD protein levels: 12 to 24 h
  MnSOD protein: significantly induced
MnSOD protein; HPAECs
  time of maximal MnSOD protein levels: 12 to 24 h
  MnSOD protein: significantly induced
eNOS protein
  eNOS protein levels: did not increase
